Legend:
peas = test: Herbicidal bioassay, peas (% necrosis); assay type: in vivo
Procedure: (§1) A laboratory bioassay was conducted to screen ten compounds (Fluazifop (25); Ethyl fluazifop (62); five fluazifop analogues: 27, 28, 63, 64 and 65; mesofulfuron (6); and two mesosulfuron analogues: 8 and 61. for activity against Lolium perenne, barley, peas and Chinese cabbage. Compounds were diluted in DMSO. Controls were performed using both DMSO and water.
(§2) Plants were obtained as seeds and were grown to the 2-4 true leaf stage. Plants were grown individually in seed trays. Each plant (in an approximately 3 cm diameter plug) was then detached from the tray for spraying. Environmental conditions were closely monitored and recorded and were within the optimal range of the target species.
(§3) The compounds were screened at a range of six concentrations, eg. 0.05%, 0.01%, 0.005%, 0.001%, 0.0005% and 0.0001%. Treatments will be applied directly onto the plants, using a potter tower.
(§4) One plant of each type will be sprayed using a potter tower. The 4 different types of weeds will be placed in a 10 cm diameter area underneath the potter sprayer and sprayed simultaneously. The growth of the plants and any Phytotoxicity effects will then be assessed at specified growth intervals, according to EPPO guideline PP1/135. Five replicates will be performed for each treatment, for each species.

barley = test: Herbicidal bioassay, barley (% necrosis); assay type: in vivo
Procedure: as §1, §2, §3, §4

## CC(Oc1ccc(Oc2ccc(C(F)(F)F)cn2)cc1)C(=O)O (stereo not drawn) [Compound 25, Fluazifop, reference compound]
peas; Dose 0.000001, Day 0
  Sum of % necrosis in Peas: C (less than 50% necrosis)
peas; Dose 0.000001, Day 1
  Sum of % necrosis in Peas: C (less than 50% necrosis)
peas; Dose 0.000001, Day 3
  Sum of % necrosis in Peas: C (less than 50% necrosis)
peas; Dose 0.000001, Day 7
  Sum of % necrosis in Peas: C (less than 50% necrosis)
peas; Dose 0.000001, Day 10
  Sum of % necrosis in Peas: C (less than 50% necrosis)
peas; Dose 0.000001, Day 14
  Sum of % necrosis in Peas: C (less than 50% necrosis)
peas; Dose 0.000001, Day 21
  Sum of % necrosis in Peas: C (less than 50% necrosis)
peas; Dose 0.000005, Day 0
  Sum of % necrosis in Peas: C (less than 50% necrosis)
peas; Dose 0.000005, Day 1
  Sum of % necrosis in Peas: C (less than 50% necrosis)
peas; Dose 0.000005, Day 3
  Sum of % necrosis in Peas: C (less than 50% necrosis)
peas; Dose 0.000005, Day 7
  Sum of % necrosis in Peas: C (less than 50% necrosis)
peas; Dose 0.000005, Day 10
  Sum of % necrosis in Peas: C (less than 50% necrosis)
peas; Dose 0.000005, Day 14
  Sum of % necrosis in Peas: C (less than 50% necrosis)
peas; Dose 0.000005, Day 21
  Sum of % necrosis in Peas: C (less than 50% necrosis)
peas; Dose 0.00001, Day 0
  Sum of % necrosis in Peas: C (less than 50% necrosis)
peas; Dose 0.00001, Day 1
  Sum of % necrosis in Peas: C (less than 50% necrosis)
peas; Dose 0.00001, Day 3
  Sum of % necrosis in Peas: C (less than 50% necrosis)
peas; Dose 0.00001, Day 7
  Sum of % necrosis in Peas: C (less than 50% necrosis)
peas; Dose 0.00001, Day 10
  Sum of % necrosis in Peas: B (50%-80% necrosis)
peas; Dose 0.00001, Day 14
  Sum of % necrosis in Peas: B (50%-80% necrosis)
peas; Dose 0.00001, Day 21
  Sum of % necrosis in Peas: A (over 80% necrosis)
peas; Dose 0.00005, Day 0
  Sum of % necrosis in Peas: C (less than 50% necrosis)
peas; Dose 0.00005, Day 1
  Sum of % necrosis in Peas: C (less than 50% necrosis)
peas; Dose 0.00005, Day 3
  Sum of % necrosis in Peas: C (less than 50% necrosis)
peas; Dose 0.00005, Day 7
  Sum of % necrosis in Peas: C (less than 50% necrosis)
peas; Dose 0.00005, Day 10
  Sum of % necrosis in Peas: C (less than 50% necrosis)
peas; Dose 0.00005, Day 14
  Sum of % necrosis in Peas: C (less than 50% necrosis)
peas; Dose 0.00005, Day 21
  Sum of % necrosis in Peas: A (over 80% necrosis)
peas; Dose 0.0001, Day 0
  Sum of % necrosis in Peas: C (less than 50% necrosis)
peas; Dose 0.0001, Day 1
  Sum of % necrosis in Peas: C (less than 50% necrosis)
peas; Dose 0.0001, Day 3
  Sum of % necrosis in Peas: C (less than 50% necrosis)
peas; Dose 0.0001, Day 7
  Sum of % necrosis in Peas: C (less than 50% necrosis)
peas; Dose 0.0001, Day 10
  Sum of % necrosis in Peas: C (less than 50% necrosis)
peas; Dose 0.0001, Day 14
  Sum of % necrosis in Peas: C (less than 50% necrosis)
peas; Dose 0.0001, Day 21
  Sum of % necrosis in Peas: A (over 80% necrosis)
peas; Dose 0.0005, Day 0
  Sum of % necrosis in Peas: C (less than 50% necrosis)
peas; Dose 0.0005, Day 1
  Sum of % necrosis in Peas: C (less than 50% necrosis)
peas; Dose 0.0005, Day 3
  Sum of % necrosis in Peas: C (less than 50% necrosis)
peas; Dose 0.0005, Day 7
  Sum of % necrosis in Peas: C (less than 50% necrosis)
peas; Dose 0.0005, Day 10
  Sum of % necrosis in Peas: C (less than 50% necrosis)
peas; Dose 0.0005, Day 14
  Sum of % necrosis in Peas: C (less than 50% necrosis)
peas; Dose 0.0005, Day 21
  Sum of % necrosis in Peas: A (over 80% necrosis)
barley; Dose 0.000001, Day 0
  Sum of % necrosis in barley: C (less than 50% necrosis)
barley; Dose 0.000001, Day 1
  Sum of % necrosis in barley: C (less than 50% necrosis)
barley; Dose 0.000001, Day 3
  Sum of % necrosis in barley: C (less than 50% necrosis)
barley; Dose 0.000001, Day 7
  Sum of % necrosis in barley: C (less than 50% necrosis)
barley; Dose 0.000001, Day 10
  Sum of % necrosis in barley: C (less than 50% necrosis)
barley; Dose 0.000001, Day 14
  Sum of % necrosis in barley: C (less than 50% necrosis)
barley; Dose 0.000001, Day 21
  Sum of % necrosis in barley: C (less than 50% necrosis)
barley; Dose 0.000005, Day 0
  Sum of % necrosis in barley: C (less than 50% necrosis)
barley; Dose 0.000005, Day 1
  Sum of % necrosis in barley: C (less than 50% necrosis)
barley; Dose 0.000005, Day 3
  Sum of % necrosis in barley: C (less than 50% necrosis)
barley; Dose 0.000005, Day 7
  Sum of % necrosis in barley: C (less than 50% necrosis)
barley; Dose 0.000005, Day 10
  Sum of % necrosis in barley: C (less than 50% necrosis)
barley; Dose 0.000005, Day 14
  Sum of % necrosis in barley: C (less than 50% necrosis)
barley; Dose 0.000005, Day 21
  Sum of % necrosis in barley: C (less than 50% necrosis)
barley; Dose 0.00001, Day 0
  Sum of % necrosis in barley: C (less than 50% necrosis)
barley; Dose 0.00001, Day 1
  Sum of % necrosis in barley: C (less than 50% necrosis)
barley; Dose 0.00001, Day 3
  Sum of % necrosis in barley: C (less than 50% necrosis)
barley; Dose 0.00001, Day 7
  Sum of % necrosis in barley: C (less than 50% necrosis)
barley; Dose 0.00001, Day 10
  Sum of % necrosis in barley: C (less than 50% necrosis)
barley; Dose 0.00001, Day 14
  Sum of % necrosis in barley: C (less than 50% necrosis)
barley; Dose 0.00001, Day 21
  Sum of % necrosis in barley: C (less than 50% necrosis)
barley; Dose 0.00005, Day 0
  Sum of % necrosis in barley: C (less than 50% necrosis)
barley; Dose 0.00005, Day 1
  Sum of % necrosis in barley: C (less than 50% necrosis)
barley; Dose 0.00005, Day 3
  Sum of % necrosis in barley: C (less than 50% necrosis)
barley; Dose 0.00005, Day 7
  Sum of % necrosis in barley: C (less than 50% necrosis)
barley; Dose 0.00005, Day 10
  Sum of % necrosis in barley: C (less than 50% necrosis)
barley; Dose 0.00005, Day 14
  Sum of % necrosis in barley: C (less than 50% necrosis)
barley; Dose 0.00005, Day 21
  Sum of % necrosis in barley: A (over 80% necrosis)
barley; Dose 0.0001, Day 0
  Sum of % necrosis in barley: C (less than 50% necrosis)
barley; Dose 0.0001, Day 1
  Sum of % necrosis in barley: C (less than 50% necrosis)
barley; Dose 0.0001, Day 3
  Sum of % necrosis in barley: C (less than 50% necrosis)
barley; Dose 0.0001, Day 7
  Sum of % necrosis in barley: C (less than 50% necrosis)
barley; Dose 0.0001, Day 10
  Sum of % necrosis in barley: C (less than 50% necrosis)
barley; Dose 0.0001, Day 14
  Sum of % necrosis in barley: C (less than 50% necrosis)
barley; Dose 0.0001, Day 21
  Sum of % necrosis in barley: A (over 80% necrosis)
barley; Dose 0.0005, Day 0
  Sum of % necrosis in barley: C (less than 50% necrosis)
barley; Dose 0.0005, Day 1
  Sum of % necrosis in barley: C (less than 50% necrosis)
barley; Dose 0.0005, Day 3
  Sum of % necrosis in barley: C (less than 50% necrosis)
barley; Dose 0.0005, Day 7
  Sum of % necrosis in barley: C (less than 50% necrosis)
barley; Dose 0.0005, Day 10
  Sum of % necrosis in barley: C (less than 50% necrosis)
barley; Dose 0.0005, Day 14
  Sum of % necrosis in barley: B (50%-80% necrosis)
barley; Dose 0.0005, Day 21
  Sum of % necrosis in barley: A (over 80% necrosis)

Reference: patent US20150094474A1, “AGRICULTURAL CHEMICALS” (Redx Pharma Ltd., priority 2012, published 2015)
